By TGI is commonly meant the concentration at which net growth stops.

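Step 1: Grow cells in 96-well plates. Step 2: Expose to compound for 48 hours at 5 concentrations. Step 3: Interpolate endpoints linearly; if unreached, use highest concentration. Definition used: TGI = concentration required for complete inhibition of growth.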 Bounds are passed on as bounds.

Test systems include SNB-78 CNS; NCI-H460 lung; M19-MEL melanoma; UACC-257 melanoma; NCI-H226 lung; LXFL 529 NSCLC; HCC-2998 colon; A498 renal; M14 melanoma; KM20L2 colon; HOP-92 NSCLC; MDA-MB-231 breast; DMS 273 small cell lung.
Assay in all cases: DTP human tumour cell line panel, 48 h

Regarding `CN(C)CC1CCCCCCCCCC(CN(C)C)C1=O` (stereo not drawn), the TGI in the assay with SNB-78 CNS was above 100 µM; in the assay with NCI-H460 lung, above 57 µM; in the assay with M19-MEL melanoma, above 100 µM; in the assay on UACC-257 melanoma, above 48.1 µM; in the assay with NCI-H226 lung it was above 60.3 µM; with LXFL 529 NSCLC, above 100 µM. Further, the TGI is above 100 µM with HCC-2998 colon; above 46.2 µM in the assay on A498 renal; above 49.1 µM in the assay with M14 melanoma; above 100 µM in the assay with KM20L2 colon; above 48.4 µM with HOP-92 NSCLC; 84.6 µM with MDA-MB-231 breast. Also, the TGI with DMS 273 small cell lung is above 100 µM.

Source of the values: PubChem BioAssay (NCI).
